Data published in patent US8507509B2, “Saturated and insaturated bi- or tricyclic aryloxyacetamine derivatives and their use as fungicides” (Syngenta Crop Protection LLC, priority 2007, dated 2013).

Legend:
Plasmopara viticola = Plasmopara viticola (downy mildew of grapevine), grapevine leaf disk assay, preventive; format: in vivo; conditions: foliar, 168 h, 200 ppm, grapevine leaf disks, assessed seven days after inoculation, read-out: control of fungal infection, Plasmopara viticola
Phytophthora infestans = assay: whole plant or invertebrate; format: in vivo; conditions: in Solanum lycopersicum, foliar, 96 h, read-out: control of fungal infection, Phytophthora infestans
[1] = test system: Erysiphe graminis f.sp. tritici; assay: Erysiphe graminis f.sp. tritici (wheat powdery mildew), wheat leaf segment assay, preventive; format: in vivo; conditions: Blumeria graminis, foliar, 96 h; 200 ppm; wheat leaf segments; assessed four days after inoculation; read-out: control of fungal infection, Etysiphe graminis f.sp. tritici
[2] = test system: Puccinia recondita f.sp. tritici; assay: Puccinia recondita f.sp. tritici (wheat brown rust), wheat leaf segment assay, preventive; format: in vivo; conditions: foliar, 216 h, 200 ppm, wheat leaf segments, assessed nine days after inoculation, read-out: control of fungal infection, Puccinia recondite f.sp. tritici
Septoria nodorum = Septoria nodorum (wheat glume blotch), wheat leaf segment assay, preventive; format: in vivo; conditions: Parastagonospora nodorum, foliar, 96 h; 200 ppm; wheat leaf segments; assessed four days after inoculation; read-out: control of fungal infection, Septoria nodorum
Septoria tritici = Septoria tritici (leaf blotch), liquid culture growth inhibition in nutrient broth; format: cell-based; conditions: Zymoseptoria tritici; 200 ppm; PDB broth, 24 C; inhibition of growth determined photometrically after 72 hrs; read-out: control of fungal infection, Septoria tritici
Fusarium culmorum = Fusarium culmorum (root rot), liquid culture growth inhibition in nutrient broth; format: cell-based; conditions: PDB broth, 24 C, inhibition of growth determined photometrically after 48 hrs, read-out: control of fungal infection, Fusarium culmorum
Method: Mycelia fragments or conidia suspensions of a fungus, prepared either freshly from liquid cultures of the fungus or from cryogenic storage, are directly mixed into nutrient broth. DMSO solutions of the test compound (max. 10 mg/ml) is diluted with 0.025% Tween20 by factor 50 and 10 μl of this solution is pipetted into a microtiter plate (96-well format) and the nutrient broth containing the fungal spores/mycelia fragments is then added to give an end concentration of the tested compound. The test plates are incubated at 24° C. and 96% rH in the dark. The inhibition of fungal growth is determined photometrically after 2-6 days and antifungal activity is calculated.
Fusarium culmorum (root rot): Conidia of the fungus from cryogenic storage were directly mixed into nutrient broth (PDB potato dextrose broth). After placing a (DMSO) solution of the test compounds into a microtiter plate (96-well format) the nutrient broth containing the fungal spores was added. The test plates were incubated at 24 C and the inhibition of growth was determined photometrically after 48 hrs.

Pythium ultimum = Pythium ultimum (Damping off), liquid culture growth inhibition in potato dextrose broth; format: cell-based; conditions: Globisporangium ultimum; 20 ppm; potato dextrose broth, 24° C.; inhibition of growth determined photometrically after 48 hours; read-out: control of fungal infection, Pythium ultimum
Botrytis cinerea = Botrytis cinerea (grey mould), bean leaf disk assay, preventive; format: in vivo; conditions: foliar, 96 h, 200 ppm, bean leaf disks, assessed four days after inoculation, read-out: control of fungal infection, Botrytis cinerea

C#Cc1cnc2ccc(OC(SC)C(=O)NC3(C=NO)CCC3)cc2c1 (stereo not shown) [Compound No. 80, 2-(3-Ethynyl-quinolin-6-yloxy)-N-[1-(hydroxyimino-methyl)-cyclobutyl]-2-methylsulfanyl-acetamide]
≥ 60%: pest or weed control at 200 ppm (Plasmopara viticola) | pest or weed control at 200 ppm (Phytophthora infestans) | pest or weed control at 200 ppm [1] | pest or weed control at 200 ppm [2] | pest or weed control at 200 ppm (Septoria nodorum) | inhibition of growth at 200 ppm (Septoria tritici) | inhibition of growth at 200 ppm (Fusarium culmorum) | inhibition of growth at 20 ppm (Pythium ultimum)

C#Cc1cnc2ccc(OC(SC)C(=O)NC(C)(C)CC=NOC)cc2c1 (stereo not shown) [Compound No. 95, 2-(3-Ethynyl-quinolin-6-yloxy)-N-(3-methoxyimino-1,1-dimethyl-propyl)-2-methylsulfanyl-acetamide]
≥ 60%: pest or weed control at 200 ppm (Plasmopara viticola) | pest or weed control at 200 ppm (Phytophthora infestans) | pest or weed control at 200 ppm [1] | pest or weed control at 200 ppm (Botrytis cinerea) | pest or weed control at 200 ppm [2] | pest or weed control at 200 ppm (Septoria nodorum) | inhibition of growth at 200 ppm (Septoria tritici) | inhibition of growth at 200 ppm (Fusarium culmorum) | inhibition of growth at 20 ppm (Pythium ultimum)

C#Cc1cnc2ccc(OC(CC)C(=O)NC(C)(C)C=NO)cc2c1 (stereo not shown) [Compound No. 147, 2-(3-Ethynyl-quinolin-6-yloxy)-N-(2-hydroxyimino-1,1-dimethyl-ethyl)-butyramide]
≥ 60%: pest or weed control at 200 ppm (Plasmopara viticola) | pest or weed control at 200 ppm (Phytophthora infestans) | pest or weed control at 200 ppm [1] | pest or weed control at 200 ppm [2] | pest or weed control at 200 ppm (Septoria nodorum) | inhibition of growth at 200 ppm (Septoria tritici) | inhibition of growth at 200 ppm (Fusarium culmorum) | inhibition of growth at 20 ppm (Pythium ultimum)

CON=CC(C)NC(=O)C(Oc1ccc2ncc(Br)cc2c1)SC (stereo not shown) [Compound No. 94, 2-(3-Bromo-quinolin-6-yloxy)-N-(2-methoxyimino-1-methyl-ethyl)-2-methylsulfanyl-acetamide]
≥ 60%: pest or weed control at 200 ppm (Plasmopara viticola) | pest or weed control at 200 ppm (Phytophthora infestans) | pest or weed control at 200 ppm [1] | pest or weed control at 200 ppm [2] | pest or weed control at 200 ppm (Septoria nodorum) | inhibition of growth at 200 ppm (Septoria tritici) | inhibition of growth at 200 ppm (Fusarium culmorum) | inhibition of growth at 20 ppm (Pythium ultimum)

C#Cc1cnc2ccc(OC(CC)C(=O)NC(C)(C#N)C=NOC)cc2c1 (stereo not shown) [Compound No. 61, N-(1-Cyano-2-methoxyimino-1-methyl-ethyl)-2-(3-ethynyl-quinolin-6-yloxy)-butyramide]
≥ 60%: pest or weed control at 200 ppm (Plasmopara viticola) | pest or weed control at 200 ppm (Phytophthora infestans) | pest or weed control at 200 ppm [1] | pest or weed control at 200 ppm (Botrytis cinerea) | pest or weed control at 200 ppm [2] | pest or weed control at 200 ppm (Septoria nodorum) | inhibition of growth at 200 ppm (Septoria tritici) | inhibition of growth at 200 ppm (Fusarium culmorum) | inhibition of growth at 20 ppm (Pythium ultimum)

C#Cc1cnc2ccc(OC(CC)C(=O)NC(C)(C)C=NOCC=C)cc2c1 (stereo not shown) [Compound No. 149, N-(2-Allyloxyimino-1,1-dimethyl-ethyl)-2-(3-ethynyl-quinolin-6-yloxy)-butyramide]
≥ 60%: pest or weed control at 200 ppm [1] | pest or weed control at 200 ppm (Botrytis cinerea) | pest or weed control at 200 ppm [2] | inhibition of growth at 200 ppm (Septoria tritici) | inhibition of growth at 200 ppm (Fusarium culmorum) | inhibition of growth at 20 ppm (Pythium ultimum)

C#Cc1cnc2ccc(OC(CC)C(=O)NC(C)(C)C=NOCC)cc2c1 (stereo not shown) [Compound No. 148, N-(2-Ethoxyimino-1,1-dimethyl-ethyl)-2-(3-ethynyl-quinolin-6-yloxy)-butyramide]
≥ 60%: pest or weed control at 200 ppm (Plasmopara viticola) | pest or weed control at 200 ppm (Phytophthora infestans) | pest or weed control at 200 ppm [1] | pest or weed control at 200 ppm [2] | pest or weed control at 200 ppm (Septoria nodorum) | inhibition of growth at 200 ppm (Septoria tritici) | inhibition of growth at 200 ppm (Fusarium culmorum) | inhibition of growth at 20 ppm (Pythium ultimum)

C#Cc1cnc2ccc(OC(SC)C(=O)NC(C)(C#N)C=NOC)cc2c1 (stereo not shown) [Compound No. 59, N-(1-Cyano-2-methoxyimino-1-methyl-ethyl)-2-(3-ethynyl-quinolin-6-yloxy)-2-methylsulfanyl-acetamide]
≥ 60%: pest or weed control at 200 ppm (Plasmopara viticola) | pest or weed control at 200 ppm (Phytophthora infestans) | pest or weed control at 200 ppm [1] | pest or weed control at 200 ppm (Botrytis cinerea) | pest or weed control at 200 ppm [2] | pest or weed control at 200 ppm (Septoria nodorum) | inhibition of growth at 200 ppm (Septoria tritici) | inhibition of growth at 200 ppm (Fusarium culmorum)

C#Cc1cnc2cc(F)c(OC(CC)C(=O)NC(C)(C)C=NOC)cc2c1 (stereo not shown) [Compound No. 134, 2-(3-Ethynyl-7-fluoro-quinolin-6-yloxy)-N-(2-methoxyimino-1,1-dimethyl-ethyl)-butyramide]
≥ 60%: pest or weed control at 200 ppm (Plasmopara viticola) | pest or weed control at 200 ppm (Phytophthora infestans) | pest or weed control at 200 ppm [1] | pest or weed control at 200 ppm [2] | pest or weed control at 200 ppm (Septoria nodorum) | inhibition of growth at 200 ppm (Septoria tritici) | inhibition of growth at 200 ppm (Fusarium culmorum) | inhibition of growth at 20 ppm (Pythium ultimum)

CON=C(C)C(C)(C)NC(=O)C(Oc1ccc2ncc(Br)cc2c1)SC (stereo not shown) [Compound No. 111, 2-(3-Bromo-quinolin-6-yloxy)-N-{2-[(E or Z)-methoxyimino]-1,1-dimethyl-propyl}-2-methylsulfanyl-acetamide]
≥ 60%: pest or weed control at 200 ppm (Plasmopara viticola) | pest or weed control at 200 ppm (Phytophthora infestans) | pest or weed control at 200 ppm [2] | pest or weed control at 200 ppm (Septoria nodorum) | inhibition of growth at 200 ppm (Septoria tritici) | inhibition of growth at 200 ppm (Fusarium culmorum) | inhibition of growth at 20 ppm (Pythium ultimum)

C#Cc1cnc2ccc(OC(SC)C(=O)NC3(C=NOC)CCC3)cc2c1 (stereo not shown) [Compound No. 78, 2-(3-ethynyl-quinolin-6-yloxy)-N-[1-(methoxyimino-methyl)-cyclobutyl]-2-methylsulfanyl-acetamide]
≥ 60%: pest or weed control at 200 ppm (Plasmopara viticola) | pest or weed control at 200 ppm (Phytophthora infestans) | pest or weed control at 200 ppm [2] | pest or weed control at 200 ppm (Septoria nodorum) | inhibition of growth at 200 ppm (Septoria tritici) | inhibition of growth at 200 ppm (Fusarium culmorum) | inhibition of growth at 20 ppm (Pythium ultimum)

C#CCOCC(C)(C=NOC)NC(=O)C(Oc1ccc2ncc(C#C)cc2c1)SC (stereo not shown) [Compound No. 62, 2-(3-Ethynyl-quinolin-6-yloxy)-N-(2-methoxyimino-1-methyl-1-prop-2-ynyloxymethyl-ethyl)-2-methylsulfanyl-acetamide]
≥ 60%: pest or weed control at 200 ppm (Plasmopara viticola) | pest or weed control at 200 ppm (Phytophthora infestans) | pest or weed control at 200 ppm [1] | pest or weed control at 200 ppm (Botrytis cinerea) | pest or weed control at 200 ppm [2] | pest or weed control at 200 ppm (Septoria nodorum) | inhibition of growth at 200 ppm (Septoria tritici) | inhibition of growth at 20 ppm (Pythium ultimum)

CON=CC1(NC(=O)C(Oc2ccc3ncc(I)cc3c2)SC)CCC1 (stereo not shown) [Compound No. 79, 2-(3-Iodo-quinolin-6-yloxy)-N-[1-(methoxyimino-methyl)-cyclobutyl]-2-methylsulfanyl-acetamide]
≥ 60%: pest or weed control at 200 ppm (Plasmopara viticola) | pest or weed control at 200 ppm (Phytophthora infestans) | pest or weed control at 200 ppm [1] | pest or weed control at 200 ppm [2] | pest or weed control at 200 ppm (Septoria nodorum) | inhibition of growth at 200 ppm (Septoria tritici) | inhibition of growth at 200 ppm (Fusarium culmorum) | inhibition of growth at 20 ppm (Pythium ultimum)

C#Cc1cnc2ccc(OC(SC)C(=O)NC(C)(C#C)C=NOC)cc2c1 (stereo not shown) [Compound No. 69, 2-(3-Ethynyl-quinolin-6-yloxy)-N-[1-(methoxyimino-methyl)-1-methyl-prop-2-ynyl]-2-methylsulfanyl-acetamide]
≥ 60%: pest or weed control at 200 ppm (Plasmopara viticola) | pest or weed control at 200 ppm (Phytophthora infestans) | pest or weed control at 200 ppm [1] | pest or weed control at 200 ppm (Botrytis cinerea) | pest or weed control at 200 ppm [2] | pest or weed control at 200 ppm (Septoria nodorum) | inhibition of growth at 200 ppm (Septoria tritici) | inhibition of growth at 200 ppm (Fusarium culmorum) | inhibition of growth at 20 ppm (Pythium ultimum)

CCC(Oc1cc(Cl)c2ncc(Br)cc2c1)C(=O)NC(C)(C)C=NOC (stereo not shown) [Compound No. 146, 2-(3-Bromo-8-chloro-quinolin-6-yloxy)-N-(2-methoxyimino-1,1-dimethyl-ethyl)-butyramide]
≥ 60%: pest or weed control at 200 ppm (Plasmopara viticola) | pest or weed control at 200 ppm (Phytophthora infestans) | pest or weed control at 200 ppm [1] | pest or weed control at 200 ppm [2] | pest or weed control at 200 ppm (Septoria nodorum) | inhibition of growth at 200 ppm (Septoria tritici) | inhibition of growth at 200 ppm (Fusarium culmorum) | inhibition of growth at 20 ppm (Pythium ultimum)

C#Cc1cnc2c(C)cc(OC(CC)C(=O)NC(C)(C)C=NO)cc2c1 (stereo not shown) [Compound No. 139, 2-(3-Ethynyl-8-methyl-quinolin-6-yloxy)-N-(2-hydroxyimino-1,1-dimethyl-ethyl)-butyramide]
≥ 60%: pest or weed control at 200 ppm (Plasmopara viticola) | pest or weed control at 200 ppm (Phytophthora infestans) | pest or weed control at 200 ppm [1] | pest or weed control at 200 ppm [2] | pest or weed control at 200 ppm (Septoria nodorum) | inhibition of growth at 200 ppm (Septoria tritici) | inhibition of growth at 200 ppm (Fusarium culmorum) | inhibition of growth at 20 ppm (Pythium ultimum)
